Measured values reported in PMC10072326, “Promising anticancer agents based on 8-hydroxyquinoline hydrazone copper(II) complexes” (Frontiers in Chemistry, 2023).

Experiments:
A-375 cells = assay: Sulforhodamine B (SRB) cell viability assay; assay type: cell-based; settings: 72 h
Experimental: (§1) Copper compounds were tested, along with the free ligands and cisplatin as the positive control, for their cytotoxicity on both melanoma (A-375) and lung adenocarcinoma (A-549) cell lines in the concentration range 0.78–50 μM. Following 72 h of incubation, cell viability was measured via sulforhodamine B (SRB) assay (Supplementary Figure S25).
(§2) A-375 cells (ATCC, CRL-3222) were grown in Dulbecco’s Modified Eagle Medium with high glucose (Gibco #11965118) and A-549 (ATCC, CCL-185) cells were grown in Dulbecco’s Modified Eagle Medium F-12 (Gibco #11320033), supplemented with 10% FBS (Gibco, #10500064) and Penicillin-Streptomycin (10,000 U/mL, Gibco, #15140122). Cells were incubated at 37 °C, 5% CO2 incubator and subcultured every 3 days.
(§3) All the tested complexes were dissolved in DMSO (10 mM stock solution), and aliquots were stored at -20 °C, thawed on the experiment day and used only once. For SRB cell viability assay, A-375 and A-549 cells were seeded on 96-well plates (4×10^3 cells/well) and treated with serial dilutions of indicated compounds (with a concentration range of 0-50 μM, 72 h). Trichloroacetic acid (TCA) was added to wells for fixation at a final concentration of 10%, for 1 h at 4 °C. Each well was washed five times with ddH2O, dried, and incubated with 0.4% (w/v) SRB dye (50 µL/well) for 30 min at room temperature. The wells were washed with 1% acetic acid (v/v) five times, and 150 µL of 10 mM Tris solution was added to dissolve the stain. Colorimetric measurements were taken at λ = 564 nm. Viability percentage was calculated as follows: % Cell Viability = [100 × (sample Abs.-blank) / (non-treated control Abs.-blank)].

A-549 cells = assay: Sulforhodamine B (SRB) cell viability assay; assay type: cell-based; settings: 72 h
Experimental: as §1, §2, §3

[1] = molecular target: bovine serum albumin (BSA) (Bos taurus, UniProt P02769); assay: BSA fluorescence quenching; assay type: binding; design: Affinity constant K ± SD: unit not given here; settings: fluorescence quenching; HypSpec2014; 1:1 species assumed
bovine serum albumin (BSA), sequence (P02769 25-607): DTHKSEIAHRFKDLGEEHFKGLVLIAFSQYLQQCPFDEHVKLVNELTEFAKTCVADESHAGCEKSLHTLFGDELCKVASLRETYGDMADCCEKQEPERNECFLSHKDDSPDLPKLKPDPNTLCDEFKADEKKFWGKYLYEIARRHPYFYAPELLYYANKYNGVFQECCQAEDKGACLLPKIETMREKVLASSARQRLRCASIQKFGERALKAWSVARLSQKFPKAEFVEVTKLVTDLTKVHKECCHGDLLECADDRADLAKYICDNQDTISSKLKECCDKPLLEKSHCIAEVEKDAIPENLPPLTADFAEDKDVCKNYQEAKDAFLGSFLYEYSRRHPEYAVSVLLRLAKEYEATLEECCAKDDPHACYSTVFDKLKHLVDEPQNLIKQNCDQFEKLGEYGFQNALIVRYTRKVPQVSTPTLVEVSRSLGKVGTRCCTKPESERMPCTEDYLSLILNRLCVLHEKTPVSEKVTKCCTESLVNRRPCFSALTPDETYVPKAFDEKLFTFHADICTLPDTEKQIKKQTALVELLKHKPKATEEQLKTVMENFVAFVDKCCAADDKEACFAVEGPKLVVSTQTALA
Experimental: To evaluate the interaction of the compounds, both organic and Cu(II) complexes, with bovine serum albumin (BSA) fluorescence spectra were measured. In a typical fluorescence experiment, to a solution of 1.5 μM of BSA in the same buffer, successive aliquots of a stock solution of each compound in DMSO were added directly to the cuvette (optical path 1.0 cm). The fluorescence emission was recorded between 310 and 600 nm with excitation at 295 nm. The final DMSO % was kept below 2% (v/v). The Stern-Volmer plots were built using the emission at 340 nm and blank samples (in the absence of BSA) with the same concentration of the complexes were recorded and subsequently subtracted from the corresponding emission spectra containing the fluorophore. Moreover, the fluorescence emission intensity was corrected for reabsorption and inner filter effects using UV-Vis absorption data recorded for each sample, since all complexes absorb in the measured wavelength range (19, 20).
The interaction of the organic compounds and Cu(II) complexes with BSA was monitored by studying the quenching of albumin’s fluorescence emission with increasing concentrations of the complexes (25). Overall, the intensity of the Trp emission decreases with the addition of the complexes, except for 8 (see Figs. S19). The Stern-Volmer relationship was used to analyse the fluorescence quenching process:
where I0 and I are the fluorescence intensities in the absence and in the presence of quencher, kq is the bimolecular quenching rate, τ0 is the fluorophore lifetime in the absence of the quencher (6.22 ns) (26) and [Q] is the quencher concentration. […] This linear relationship is obeyed for all complexes except 5, where a downward curvature is observed. This can be an indication of two distinct binding sites, corresponding to two populations of fluorophores, one being accessible and other inaccessible or buried inside the protein. In such cases, the Stern-Volmer relation can be modified to (27):
where ΔI = I0 – I, Ka is the Stern-Volmer constant for the accessible fraction and fa is the fraction of accessible fluorophore. […] As first approximation, the total concentration of quencher was used to check the quenching mechanism. […] As all systems presented high absorbance values in the measured range of wavelengths, no excess of quencher was used and, therefore, 1:1 species will be assumed for these interactions.

[2] = Thermodynamic solubility at pH 7.4; assay type: physicochemical; settings: Cu(II) complexes; pH 7.40; 20 mM HEPES; 25.0°C
Experimental: Thermodynamic solubility (S) was measured for the new ligands, L^7 and L^8, since data for the rest of the series was previously reported (9), and for selected Cu(II) complexes: 1, 5 and 6. Solubility was measured for the saturated solutions in water at pH 7.40 in 20 mM HEPES at 25.0 ± 0.1 °C. The concentration was determined by UV-Vis spectrophotometry using the stock solutions of the compounds with known concentrations dissolved in 100% DMSO, 50% and 25% (v/v) DMSO/buffered aqueous solutions for the calibration.

[3] = test system: Klebsiella pneumoniae ATCC 49619; assay: MIC determination; assay type: cell-based; settings: K. pneumoniae; 18 h
Experimental: (§4) Wild-type Escherichia coli K-12 AG100 strain [argE3 thi-1 rpsL xyl mtl Δ(gal-uvrB) supE44] expressing the AcrAB TolC efflux pump at its basal level and Klebsiella pneumoniae ATCC 49619 Gram-negative strains were studied in the experiments. Sensitive (ATCC 25928) and the methicillin-resistant (MRSA 272123) subspecies of Staphylococcus aureus were used as Gram-positive strains in the assays.
(§5) Minimum inhibitory concentration (MIC) values of selected compounds were determined in 96-well plates based on the Clinical and Laboratory Standard Institute guidelines (CLSI guidelines). The stock solutions of the compounds were dissolved in DMSO using 1.3 μL of Mueller Hinton Broth, and then two-fold serial dilutions were performed. The starting concentration of the compounds was 100 μM. Then 10^‒4 dilution of an overnight bacterial culture in 100 μL of medium was added to each well, except for the medium control wells.

[4] = test system: Escherichia coli K-12 AG100; assay: MIC determination; assay type: cell-based; settings: E. coli; 18 h
Experimental: as §4, §5

[5] = Cu(II) complex formation and stability constants by UV-Vis spectrophotometric titrations; assay type: physicochemical; settings: physiological pH; 1 μM concentration
Experimental: The complex formation processes of L^1, L^5 and L^6 with Cu(II) ions were studied by UV-Vis spectrophotometry in 30% (v/v) DMSO/H2O using relatively low concentrations (c L = 50–60 μM), due to the limited water solubility of the ligand precursors as well as of the Cu(II) complexes (see thermodynamic solubility data in aqueous media in Table 2 and Table 3). L^1 was selected as the simplest compound of the studied ligand series, whereas L^5 and L^6 were selected to compare with the oxidovanadium(IV) system ([Ribeiro et al., 2022]). The solution stability and stoichiometry of the Cu(II) complexes were determined by the evaluation of the UV-Vis spectra recorded at various pH values (representative spectra are shown for the Cu(II) ‒ L^1 and Cu(II) ‒ L^6 systems in Figures 3A,B and for Cu(II) ‒ L^5 in Supplementary Figure S10A). The computed overall stability constants and pK a values of the complexes are collected in Table 3. The formation of only mono-ligand complexes was found with [Cu(LH)]^+, [Cu(L)], and [Cu(LH‒1)]^‒ (and [Cu(LH‒2)]^2‒ in the case of L^6) compositions, and their computed molar absorbance spectra are shown in Figures 3C, D, Supplementary Figure S10B.
An Agilent Cary 8454 diode array spectrophotometer was used to record the UV-Vis spectra in the range of 200–800 nm. Titrations were carried out with a Metrohm 665 Dosimat burette and an Orion 710A pH-meter equipped with a Metrohm combined electrode. A ionic strength of 0.10 M (KCl) was used to keep the activity coefficients constant. The titrations were performed with 0.10 M carbonate-free KOH solution in a 30% (v/v) DMSO/H2O solvent mixture. […] The average water ionization constant (pKw) is 14.53 ± 0.05 in the 30% (v/v) DMSO/H2O solvent mixture. The pKa values of the ligand precursors and the logβ values for the Cu(II) complexes were determined in 30% (v/v) DMSO/H2O in the same way as it was done in our previous publications (9, 11).
Spectrophotometric titrations were carried out on samples containing the ligands at 50 μM concentration, in the pH range from 2.0 to 11.5 in the absence or the presence of 1, 0.5 or 0.25 equiv. Cu(II) ions, using 10 cm^3 sample volumes. Proton dissociation constants (pKa) of the ligand precursors as well as stoichiometry and stability constants of the Cu(II) complexes (β) were calculated by the computer program PSEQUAD (12). The usual definition of overall (β) and stepwise (K) formation constants is used: […]

S. aureus ATCC 25928 = assay: MIC determination; assay type: cell-based, Staphylococcus aureus; settings: S. aureus ATCC 25928 (sensitive); 18 h
Experimental: as §4, §5

S. aureus MRSA 272123 = assay: MIC determination; assay type: cell-based, Staphylococcus aureus; settings: 18 h
Experimental: as §4, §5

SMILES | IC50 (A-375 cells) [µM] | IC50 (A-549 cells) [µM] | Affinity constant K ± SD [1] | thermodynamic solubility S 7.4 [2] [µM] | MIC [3] [µM] | MIC [4] [µM] | level of dissociation of the complex [5] | MIC (S. aureus ATCC 25928) [µM] | MIC (S. aureus MRSA 272123) [µM]
CC(=O)[O-].Cc1ccc(C(=O)NN=Cc2ccc3cccc([O-])c3n2)cc1.[Cu+2] [Complex 4, [Cu(HL^4)(AcO)]] | 2 ± 1.3 | 3.9 ± 0.6 | (3.2 ± 1.0) × 10^6 | 4.0 ± 0.2 |  |  |  |  | 
O=C([N-]N=Cc1ccc2cccc([O-])c2n1)c1ccc(O)cc1.O=C([N-]N=Cc1ccc2cccc([O-])c2n1)c1ccc(O)cc1.O=C([N-]N=Cc1ccc2cccc([O-])c2n1)c1ccc(O)cc1.[Cu+2].[Cu+2].[Cu+2] [Complex 6, [Cu(L^6)]3] | 13.6 ± 0.9 | 16 ± 0.3 | (2.7 ± 0.8) × 10^5 |  | > 100 | > 100 | ca. 5% | > 100 | > 100
N.N.[Cl][Pt][Cl] [cisplatin, reference compound] | 11.2 ± 0.3 | 16.5 ± 3.4 |  |  |  |  |  |  | 
O=C([N-]N=Cc1ccc2cccc([O-])c2n1)c1ccc(Cl)cc1.O=C([N-]N=Cc1ccc2cccc([O-])c2n1)c1ccc(Cl)cc1.O=C([N-]N=Cc1ccc2cccc([O-])c2n1)c1ccc(Cl)cc1.[Cu+2].[Cu+2].[Cu+2] [Complex 2, [Cu(L^2)]3] | 6.5 ± 0.8 | 9.3 ± 0.4 | (8.3 ± 0.1) × 10^4 | < 1 |  |  |  |  | 
[Cl][Cu][Cl] [CuCl2, reference compound] |  |  |  |  | > 100 | > 100 |  | > 100 | > 100
